Assay results: paper PMC11963564 (Antimicrobial Agents and Chemotherapy, 2025)

Columns and labels:
3CL^pro mutant F140A = type: biochemical, SARS-CoV-2
[1] = system: SARS-CoV-2 Omicron variant B.1.1.529; conditions: cited from earlier work

simnotrelvir
IC50 fold change to WT (3CL^pro mutant F140A): 21.9 fold | IC50 [1]: 43 nM
